In patent US20230381261A1, “A Purified Extract Isolated from Agrimonia Coreana Nakai Containing Abundant Amount of Active Ingredient, the Preparation Thereof, the Composition Comprising the Same as an Active Ingredient for Preventing or Treating Inflammation, Allergy and Atopic Dermatitis and the Use Thereof” (priority 2020, published 2023):

Columns and labels:
[1] = system: IL-2 release in Jurkat T cell; experiment: Inhibition of IL-2 release in Jurkat T cell (ELISA, anti-CD3/anti-CD28 stimulation); type: cell-based; details: Homo sapiens; 10 μM BTP2 control; anti-CD3 and anti-CD28 stimulated Jurkat T cell; 72 hours; read-out: Inhibition rate on IL-2 release (%)
Description: In order to determine the anti-immunological activity of inventive extract, following inhibition test of cytokine release in Jukrat T cell was performed according to the procedure disclosed in the literature (ARTHRITIS & RHEUMATISM Vol. 52, No. 9, September 2005, pp 2730-2739).
ELISA (Enzyme-linked immunosorbent assay) was performed to determine the release of IL-2 in Jukrat T cell.
Jukrat T cell (TIB-152, American Type Culture Collection(ATCC)) was inoculated into 96 well plates (2×10^5 cells/well) and stimulated with anti-CD3 and anti-CD 28.
In order to determine the inhibition effect on the IL-2 release of T cell of inventive extract, the test samples, i.e., the extract disclosed in Comparative Examples and Examples, were inoculated into the well plate to be 100 μg/mL with the stimuli of anti-CD3 and anti-CD 28.
10 μM BTP2([N-{4-[3,5-bis(Trifluoromethyl)-1H-pyrazol-1-yl]phenyl}-4-methyl-1,2,3-thiadiazole-5-carboxamide], 203890-M, Calbiochem) was used as a control group. […]
The release of cytokines was analyzed by IL-2 specifically reacting ELISA kit (BGK60568, Peprotech Inc. NJ, USA) and the content of IL-2 was determined according to the instruction manual of manufacture.

[2] = system: CD4+ T cell; experiment: Inhibition of CD4+ T cell proliferation (CFSE, flow cytometry, anti-CD3/anti-CD28 stimulation); type: cell-based; details: Homo sapiens; 10 μM BTP2 control; anti-CD3 and anti-CD28 stimulated CD4+ T cell; 72 hours; read-out: Inhibition rate on T cell proliferation (%)
Description: In order to determine the anti-immunological activity of inventive extract, following inhibition test of proliferation of T cell isolated from human blood was performed according to the procedure disclosed in the literature (J Immunol Jul. 15, 2002, 169 (2) 802-808).
In order to evaluate the anti-immunological activity of inventive extract, PBMC(peripheral blood mononuclear cell) and T cell which had been used in the various immunological analysis, were prepared from human blood using Fiicoll (GE17-5442-02, GE Healthcare) according to the previous literature (BIOPRESERVATION AND BIOBANKING, Volume 14, Number 5, 2016).
CD4+ T cell was carefully isolated from the isolated PBMC using by T cell isolation kit (130-096-533, Miltenyi biotec.) according to the manufacture's manual instruction.
The anti-immunological effect on T cell was evaluated by the inhibition effect on the proliferation of CD4+ T cell. […]
The T cell treated with test sample was incubated at 37° C. for 72 hours in 5% CO2 incubator (MCO-18AC, Panasonic) and then the cell was collected to be analyzed using Flow cytometry (BD LSRFortessa, BD Biosciences).

Cc1nnsc1C(=O)Nc1ccc(-n2nc(C(F)(F)F)cc2C(F)(F)F)cc1 [BTP2, N-{4-[3,5-bis(Trifluoromethyl)-1H-pyrazol-1-yl]phenyl}-4-methyl-1,2,3-thiadiazole-5-carboxamide]
inhibition at 10 µM [1]: 90.3 ± 0.552% | inhibition at 10 µM [2]: 98.84 ± 0.0006%
